Test results published in US6503869B1, “Enhanced post-emergent herbicidal compositions containing ammonium salts and methods of using the same” (Falcon Lab LLC, priority 2000, dated 2003).

Columns and labels:
fescue = assay: Field study on fescue suppression; format: in vivo; conditions: one week after spraying; 0.2% ammonium pelargonate alone; 15 gpa
From the text: A field study was made on fescue suppression (fescue thatch, 9-10 in. height, blade length 10-16 in.) using a 0.2% by weight solution of ammonium pelargonate alone, glyphosate ammonium salt alone (ROUNDUP DF®) at application rates of both 0.21 lb. active ingredient/acre (ai/A) and 0.42 lb. ai/A and a combination of 0.2% ammonium pelargonate with the same rates of ROUNDUP DF. The spray rate was 15 gal./acre (gpa) in all cases. One week after spraying, the following results were obtained: […]

weeds and grass = assay: Time to visual phytotoxic effect after application to weeds (general statement); format: in vivo; conditions: without ammonium pelargonate; 'or longer'
From the text: As an example, weed and grass necrosis may approach 100% within 24 hrs. with glyphosate in combination with ammonium pelargonate, compared to 3-4 days or longer without the ammonium pelargonate.
Unwanted vegetation may be killed by applying to the locus of the vegetation the herbicidal composition of the invention. The herbicidal composition of the invention may be contacted with the unwanted vegetation by spraying or otherwise distributing the composition onto the foliage in accordance with the manufacturers' directions of the post-emergent herbicide [to which has been added the compound of formula (I)]. […] Most importantly, the invention dramatically reduces the kill time. Leaves of vegetation sprayed with herbicidal compositions of the invention usually start to shrivel or turn brown within hours of a single application. Necrosis is evident, usually in 24 hours. Typically unwanted vegetation is dead in less than 24 hours compared to 3 to 4 days when the post-emergent is solely used. Since use of the compound of formula (I) decreases the amount of post-emergent herbicide required, the invention dramatically reduces costs.

Compound	necrosis (fescue)	time until weed and grass necrosis may approach 100% (weeds and grass)
CCCCCCCCC(=O)O.N [Ammonium Pelargonate, ammonium pelargonate]	0%	–
O=C(O)CNCP(=O)(O)O [glyphosate]	–	3 to 4 days
